These results are taken from patent US20090275632A1, “Methods of diagnosis and treatment” (OncoMethylome Sciences SA, priority 2006, published 2009).

Experiment [1] has as its system miR-124a. In words: Expression of mature miR-124a by quantitative RT-PCR in HCT-116 cells. It is filed as cell-based, human. Conditions: 5-aza-2-deoxycytidine (1 µM) for 72 h. The procedure: GAPDH was used as internal control. PCR products were analyzed in a 3% agarose gel. Realtime PCR analysis of miRNAs was performed as previously described (Biotechniques 39:519-525). In brief, total RNA was isolated from cell lines or tissues using Trizol reagent and the small RNA fraction was further isolated using the miRVANA kit (Ambion). 500 ng of the small RNA fraction was polyadenylated by poly(A) polymerase (PAP, Ambion) at 37° C. for 1 hr in a 6 uL reaction. After phenol-chloroform extraction and ethanol precipitation the polyadenylated small RNAs were reversed transcribed according to the manufacturer's protocols using 200U SuperScript-II Reverse Transcriptase (RT, Invitrogen) and 0.5 ug poly(T) adapter (GCG AGC ACA GM TTAATACGACTCACTATAGGTTTTTTTTTT TTV N) (SEQ ID NO:36). The small cDNAs were then treated with RNAse H at 37° C. for 1 hr and finally diluted 240 fold. Negative controls were included in both PAP and RT reactions. […] Finally, the melting temperature for each miRNA was experimentally determined from the thermal dissociation curves using ABI Prism 7900HT (Applied Biosystems, Foster City, Calif., USA). […]
Each set of PCR reactions included a dilution series of a reference cDNA to be used for quantification.

A further experiment relates to CDK6. As to the kind of experiment: Western blot for CDK6 in HCT-116 cells. Conditions: AZA 1 µM 72 h, miR-124a precursor 100 nM RNA duplexes, 48 h after transfection. It is filed as cell-based, human. From the text: (§1) Analyses of CDK6 and phosphorylated Rb expression by Western blot, immunohistochemistry and RT-PCR. We collected cells by centrifugation and washed cell pellets twice with phosphate-buffered saline buffer. Total extracts were fractionated on a SDS-PAGE gel and transferred to a polyvinylidene difluoride membrane with […] (Immobilon PSQ, Millipore). The membranes were blocked in 5% milk PBS-T (phosphate-buffered saline with 0.1% Tween-20) and immunoprobed with antibodies against CDK6 (1:1000; Cell Signaling) and P-Rb-S807/811 (1:1000; Cell Signaling). An antibody to β-actin (1:5000; Sigma) was used as a loading control. Immunoreactive bands were visualized using a chemiluminescent substrate (Amersham) after incubation of the membrane with secondary antibodies conjugated to horseradish peroxidase.

Experiment [2] deals with miR-124a. In words: Expression analyses of miR-124a by RT-PCR in MCF-7 breast cancer cell line. Conditions: MCF-7 cells (miR-124a methylated).
Experiment [3] concerns miR-124a. As to the kind of experiment: Expression of precursor miR-124a by conventional RT-PCR in HCT-116 cells. To be noted: 5-aza-2-deoxycytidine (1 µM) for 72 h. It is filed as cell-based, human. The procedure:
GAPDH was used as internal control. PCR products were analyzed in a 3% agarose gel. Realtime PCR analysis of miRNAs was performed as previously described (Biotechniques 39:519-525). In brief, total RNA was isolated from cell lines or tissues using Trizol reagent and the small RNA fraction was further isolated using the miRVANA kit (Ambion). 500 ng of the small RNA fraction was polyadenylated by poly(A) polymerase (PAP, Ambion) at 37° C. for 1 hr in a 6 uL reaction. After phenol-chloroform extraction and ethanol precipitation the polyadenylated small RNAs were reversed transcribed according to the manufacturer's protocols using 200U SuperScript-II Reverse Transcriptase (RT, Invitrogen) and 0.5 ug poly(T) adapter (GCG AGC ACA GM TTAATACGACTCACTATAGGTTTTTTTTTT TTV N) (SEQ ID NO:36). The small cDNAs were then treated with RNAse H at 37° C. for 1 hr and finally diluted 240 fold. Negative controls were included in both PAP and RT reactions. Moreover, two additional RT reactions were performed using half and double the input of polyadenylated small RNAs to ensure the linearity of the reverse transcription step. Finally, the melting temperature for each miRNA was experimentally determined from the thermal dissociation curves using ABI Prism 7900HT (Applied Biosystems, Foster City, Calif., USA). […]

In another experiment the test system is CDK6 mRNA. In words: RT-PCR analyses of CDK6 mRNA in HCT-116 cells. It is filed as cell-based, human. To be noted: AZA 1 µM 72 h, miR-124a precursor 100 nM RNA duplexes, 48 h after transfection.
Another experiment deals with Rb. As to the kind of experiment: Western blot for phosphorylated Rb (P-Rb-S807/811) in HCT-116 cells. It is filed as cell-based, human. To be noted: AZA 1 µM 72 h, miR-124a precursor 100 nM RNA duplexes, 48 h after transfection.
From the text: as §1
(In general: A western blot detects proteins with antibodies after separation by electrophoresis.)

The subject of the next experiment is miR-124a CpG island. In words: Chromatin immunoprecipitation assay for histone modification marks and methyl-CpG binding domain proteins. To be noted: HCT-116 cells, 5-aza-2-deoxycytidine (1 µM) for 72 h. It is filed as cell-based, human. As to the method:
Standard ChIP assays were performed as previously described (3). In brief, cells were treated with 1% formaldehyde for 15 min. Then, chromatin was sheared with a Bioruptor™ (Diagenode) to an average length of 0.4-0.8 kb for this analysis. The following antibodies were used: anti-MeCP2 (ab3752), anti-MBD2 (ab3754), and anti-trimethyl-K4 histone H3 (ab8580) (ab1220) (Abcam) and anti-acetyl H3 (06-599) and anti-acetyl H4 (06-598) (Upstate biotechnologies). PCR amplification was performed in 20 μl with specific primers for each of the analyzed promoters.
for miR-124a1 5′-CM AGA GCC TTT GGA AGA CG-3′ (sense) (SEQ ID NO: 40) and 5′-GGAAGAGGGGTGGGTAGAAG-3′ (antisense) (SEQ ID NO: 41), for miR-124a2 5′-GCGTGGTCCTTAAAAACCTG-3′ (sense) (SEQ ID NO: 42) and 5′-CCATGCCATTTACAGCACAC-3′ (antisense) (SEQ ID NO: 43); and for miR-124a3 5′-GGA GM GTG TGG GCT CCT C-3′ (sense) (SEQ ID NO: 44) and 5′-AAT CM GGT CCG CTG TGA AC-3′ (antisense) (SEQ ID NO:45). For each promoter, the sensitivity of PCR amplification was evaluated on serial dilutions of total DNA collected after sonication (input fraction). PCR amplifications were carried out with a variable number of cycles at 94° C. for 30 s, 60° C. for 30 s and 72° C. for 30 s. The amplified DNA was separated on 2% agarose gel and visualized with ethidium bromide.

Where [4] appears, read: listed as DNA demethylating agent.

As to `Nc1ncn([C@H]2C[C@H](O)[C@@H](CO)O2)c(=O)n1` [AZA, 5-aza-2′-deoxycytidine], the “mature miR-124a expression” value in the experiment with miR-124a [1] is given as “miR-124a upregulation”; in the experiment with miR-124a [1] (setting [4]), “restored”. Further, the CDK6 protein level result in the experiment with CDK6 was “reduction in CDK6 levels”; with CDK6 (listed as demethylating agent), “CDK6 downregulation”. In addition, in the experiment on miR-124a [2], the miR-124a expression entry is “miR-124a upregulation”. In addition, the entries for the “precursor miR-124a expression” value in the experiment with miR-124a [3] and in the experiment on miR-124a [3] (setting [4]) were “miR-124a upregulation” and “restored”, respectively. For the same compound, the entries for the “CDK6 mRNA expression level” value in the experiment on CDK6 mRNA and in the experiment with CDK6 mRNA (listed as demethylating agent) were “do not demonstrate any change” and “no difference”, respectively. For the same compound, the “phosphorylation of Rb in the residues 807 and 811” value is “hypophosphorylated” with Rb (setting [4]) and “reduced Rb phosphorylation” in the experiment on Rb (listed as demethylating drug). In addition, the “histone modification marks linked to transcriptional activity (acetylation of histones H3 and H4, trimethylation of lysine 4 of histone H3) in the miR-124a CpG island” value with miR-124a CpG island is on record as “the opposite scenario is observed”; with miR-124a CpG island (listed as demethylating agent) it was “emergence of the histone marks of active transcription”. Further, the “occupancy of the miR-124a CpG island by MBDs (MeCP2 and MBD2)” value is recorded as “the opposite scenario is observed” in the experiment with miR-124a CpG island and “release of binding by MBDs” in the experiment with miR-124a CpG island (listed as demethylating agent).
